Where a name gives a salt, the structure may show the parent alone. Read-outs that look alike come from different tables or passages of the source.
Key:
circulating lymphocytes [1] = experiment: In vivo lymphopenia ED50 in mice; conditions: Mus musculus, Lymphocyte, read-out: ED50 (EDG1) (In mice)
Method: (§1) b) Assessment of Lymphopenia
(§2) Lymphopenia was assessed in vivo. Experiments were done in non-fasted/fasted Swiss mice and/or: Sprague Dawley rats, Wistar rats, Beagle dogs, Cynomolgus monkeys. Compounds were administered orally in suspension in carboxymethyl-cellulose 0.5-1% in water (W/V). Blood was taken on anesthetized/non anaesthetized animal (4% isoflurane) and samples collected in EDTA-containing vacuum tubes from 1 h 30 to 72 hours post administration for lymphopenia measurement.
(§3) After 10 minutes stirring, cells were counted using ABC Vet haemocytometer (Scil vet animal Care) for rodent and dog or ADVIA 120 hematology analyzer for monkeys. Pharmacodynamic effect was measured by the decrease in circulating lymphocytes by test item treatment in comparison with haematological parameters of control animals or versus predosing in the same animals.

[2] = Pharmacokinetic parameters in Swiss mice after oral administration; conditions: mouse, in vivo, 1 mg/kg p.o.; for Cmax: n = 4; for AUC(0-t): n = 4, read-out: AUC(0-48 h)
Source text: Moreover, preferred compounds of the present invention also display an outstanding bioavailability.

hERG channel = hERG channel (Homo sapiens, UniProt Q12809); experiment: biochemical
Chain of hERG channel (Q12809 whole entry): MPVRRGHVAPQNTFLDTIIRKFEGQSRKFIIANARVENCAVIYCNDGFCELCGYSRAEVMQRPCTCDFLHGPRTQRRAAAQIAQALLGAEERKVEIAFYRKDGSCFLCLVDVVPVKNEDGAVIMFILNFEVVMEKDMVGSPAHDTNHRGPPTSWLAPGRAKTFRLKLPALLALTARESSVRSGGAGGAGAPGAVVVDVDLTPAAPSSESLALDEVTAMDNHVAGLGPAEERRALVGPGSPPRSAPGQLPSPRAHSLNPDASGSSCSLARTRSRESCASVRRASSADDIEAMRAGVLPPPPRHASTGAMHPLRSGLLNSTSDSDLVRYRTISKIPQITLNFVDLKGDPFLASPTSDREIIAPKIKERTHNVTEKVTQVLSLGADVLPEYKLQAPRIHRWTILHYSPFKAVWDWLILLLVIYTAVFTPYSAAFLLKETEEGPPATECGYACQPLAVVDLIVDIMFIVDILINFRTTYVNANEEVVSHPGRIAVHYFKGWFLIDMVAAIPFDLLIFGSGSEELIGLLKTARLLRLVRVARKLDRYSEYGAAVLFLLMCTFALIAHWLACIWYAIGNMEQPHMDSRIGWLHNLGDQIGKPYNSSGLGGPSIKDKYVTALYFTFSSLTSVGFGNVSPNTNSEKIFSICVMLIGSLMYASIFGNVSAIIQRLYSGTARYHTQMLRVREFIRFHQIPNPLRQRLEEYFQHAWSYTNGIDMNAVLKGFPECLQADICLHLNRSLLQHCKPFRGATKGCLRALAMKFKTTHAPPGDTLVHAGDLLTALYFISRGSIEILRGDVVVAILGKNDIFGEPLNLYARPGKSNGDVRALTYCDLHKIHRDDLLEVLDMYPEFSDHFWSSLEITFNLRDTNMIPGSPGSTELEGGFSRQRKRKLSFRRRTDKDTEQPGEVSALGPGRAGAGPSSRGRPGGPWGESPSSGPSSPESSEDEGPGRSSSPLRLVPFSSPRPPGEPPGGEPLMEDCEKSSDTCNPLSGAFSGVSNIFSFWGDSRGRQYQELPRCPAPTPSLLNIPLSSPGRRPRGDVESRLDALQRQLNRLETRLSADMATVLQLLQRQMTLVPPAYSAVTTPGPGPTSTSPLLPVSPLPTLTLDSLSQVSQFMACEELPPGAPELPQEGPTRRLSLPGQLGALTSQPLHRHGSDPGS
Method: c) Evaluation of Activity for hERG Blockade Liability
HEK293 cells were stably transfected with the human hERG receptor gene. Binding assays were performed using 5 μg of cell membranes expressing hERG channel resuspended in 10 mM Hepes pH 7.4, 135 mM NaCl, 60 mM DL-Aspartic Acid Potassium, 1 mM EGTA, 0.8 mM MgCl2, 10 mM (D+) Glucose, 0.01% BSA, in a final volume of 200 μL. For [^3H] […] Non specific binding was estimated in the presence of 1 μM Astemizole. The reaction was terminated by filtration through Durapore BV 1.2 μm filters pre-soaked in 3% polyethyleneimine 10 minutes at room temperature. Filters were rinsed 2 times with 250 μL of ice cold 25 mM Tris-HCl pH 7.4 buffer. The filter-bound radioactivity was measured in a liquid scintillation counter with 50 μL of scintillation fluid. [^3H]
The hERG binding investigated by use of [^3H]

EDG-1 [3] = molecular target: T1, EDG-1 (Homo sapiens, UniProt P21453); experiment: 35S-GTPγS binding assay, EDG1 (S1P1); format: biochemical; parameters: expressed in transfected cells
T1 sequence (P21453 whole entry): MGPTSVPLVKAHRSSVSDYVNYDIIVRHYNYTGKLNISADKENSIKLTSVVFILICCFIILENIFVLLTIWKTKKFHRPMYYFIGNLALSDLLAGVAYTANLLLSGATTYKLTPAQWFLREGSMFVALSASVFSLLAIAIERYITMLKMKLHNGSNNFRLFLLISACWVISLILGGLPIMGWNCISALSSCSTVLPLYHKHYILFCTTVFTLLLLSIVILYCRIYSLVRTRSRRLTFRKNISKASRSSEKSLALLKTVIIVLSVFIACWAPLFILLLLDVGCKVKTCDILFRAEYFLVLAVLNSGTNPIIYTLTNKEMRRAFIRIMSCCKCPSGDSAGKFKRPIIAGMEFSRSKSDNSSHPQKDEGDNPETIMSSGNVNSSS
Summary of the method: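 Cell membranes (~15 μg protein) in 50 mM tris-HCl pH 7.5, 10 mM MgCl2, 100 mM NaCl, 10 μM GDP with 0.025 nM [35S]GTP-γ-S; nonspecific binding defined by 10 μM unlabelled GTP-γ-S. Intrinsic activity expressed relative to maximal S1P stimulation (full/partial agonism).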

EDG3 = EDG3 (Homo sapiens, UniProt Q99500); experiment: 35S-GTPγS binding assay, EDG3 (S1P3); format: biochemical; conditions: Table 1a
Chain of EDG3 (Q99500 whole entry, species assumed): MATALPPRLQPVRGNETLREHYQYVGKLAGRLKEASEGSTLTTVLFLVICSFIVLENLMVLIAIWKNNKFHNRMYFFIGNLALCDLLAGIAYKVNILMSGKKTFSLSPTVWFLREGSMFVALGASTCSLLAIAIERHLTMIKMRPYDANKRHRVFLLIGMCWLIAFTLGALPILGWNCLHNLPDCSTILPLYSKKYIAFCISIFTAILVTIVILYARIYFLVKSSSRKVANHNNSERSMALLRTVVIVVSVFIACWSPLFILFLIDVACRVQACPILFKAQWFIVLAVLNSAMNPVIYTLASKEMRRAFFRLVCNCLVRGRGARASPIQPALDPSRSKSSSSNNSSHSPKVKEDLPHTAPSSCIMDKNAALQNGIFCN
Method: (§4) a) 35S-GTPγS Binding Assay GTP-γ-^35S binding was performed using […]15 μg protein of cell membranes suspended in 50 mM tris-HCl pH 7.5 containing 10 mM MgCl2, 100 mM NaCl and 10 μM GDP. The radioligand was 0.025 nM [^35S] GTP-γ-S and non specific binding determined in the presence of 10 μM non-radioactive GTP-γ-S. […] The maximal stimulation elicited by S1P was taken as a reference to define full or partial agonism and calculate the intrinsic activity (i.a.) of compounds.

EDG5 = EDG5 (Homo sapiens, UniProt O95136); experiment: 35S-GTPγS binding assay, EDG5 (S1P2); format: biochemical; conditions: Table 1a
Chain of EDG5 (O95136 whole entry, species assumed): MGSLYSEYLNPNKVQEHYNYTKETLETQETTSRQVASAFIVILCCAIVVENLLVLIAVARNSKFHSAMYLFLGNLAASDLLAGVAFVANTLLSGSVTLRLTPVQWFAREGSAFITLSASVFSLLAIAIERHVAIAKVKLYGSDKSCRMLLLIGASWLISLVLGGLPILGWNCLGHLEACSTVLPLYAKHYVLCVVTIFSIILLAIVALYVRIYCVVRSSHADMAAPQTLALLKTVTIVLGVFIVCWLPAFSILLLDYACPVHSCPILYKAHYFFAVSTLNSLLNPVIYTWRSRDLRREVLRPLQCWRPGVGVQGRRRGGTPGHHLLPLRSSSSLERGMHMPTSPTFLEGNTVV
Method: as §4

circulating lymphocytes [4] = experiment: Assessment of lymphopenia in rats; format: in vivo; conditions: 0.3 mpk, 24 hrs
Method: as §1, §2, §3

EDG-1 [5] = molecular target: T1, EDG-1; experiment: [3H]dihydroS1P binding assay on HEK293-EDG-1 cell membranes; parameters: expressed in transfected cells; host or cells: HEK293; conditions: transfected HEK293 cells; read-out: IC50, competition with [3H]dihydroS1P
Source text: Furthermore, we settled a binding assay on HEK293-EDG-1 cells on these membranes using [3H]dihydroS1P. By Scatchard analysis we identified one binding site for [3H]dihydroS1P. Both S1P and dihydroS1P (an S1P biometabolite) compete with [3H]dihydroS1P on transfected HEK293 cells with an 1050 closed to 5± nM and a maximum binding capacity Bmax of […] of protein.

EDG1 = experiment: In vivo activity versus counterpart of WO 2007/132307; conditions: at 1 mg/kg
Source text: The compounds of the invention show a better in vivo activity profile over their corresponding counterparts of WO 2007/132307, as evidenced below: […]

[6] = Table 1a, read-out: EC50 (nM) EDG1

Cl.O=C(O)C1(C(=O)O)CCN(Cc2ccc(-c3noc(-c4ccc(C5CCCCC5)cc4)n3)cc2)CC1 [Comparative example 8, reference compound]
ED50 (circulating lymphocytes [1]): 10 mg/kg

CC(C)Cc1ccc(-c2nc(-c3ccc(CN4CCC(C)(C(=O)O)CC4)cc3)no2)cc1Cl [Example 3, 1-{4-[5-(3-chloro-4-isobutylphenyl)-[1,2,4]-oxadiazol-3-yl]benzyl}-4-methylpiperidine-4-carboxylic acid]
Cmax [2]: 798 ng/mL
AUC(0-t) [2]: 13100 ng·h/mL
ED50 (circulating lymphocytes [1]): 0.2 mg/kg

Cl.O=C(O)C1(C(=O)O)CCN(Cc2ccc(-c3noc(-c4ccc(-c5ccccc5)c(F)c4)n3)cc2)CC1 [Comparative example 6, reference compound]
ED50 (circulating lymphocytes [1]): 0.4 mg/kg

COCCOCC1(C(=O)O)CCN(Cc2ccc(-c3noc(-c4ccc(CC(C)C)c(Cl)c4)n3)cc2)CC1 [Example 14, 1-{4-[5-(3-chloro-4-isobutylphenyl)-[1,2,4]-oxadiazol-3-yl]benzyl}-4-(2-methoxyethoxymethyl)piperidine-4-carboxylic acid tert-butyl amine salt]
Ki (hERG channel): > 10000 nM
EC50 (EDG-1 [3]; [6]): < 1 nM
EC50 (EDG3): > 1000 nM
EC50 (EDG5): > 1000 nM
Cmax [2]: 843 ng/mL
AUC(0-t) [2]: 9240 ng·h/mL
ED50 (circulating lymphocytes [1]): 0.2 mg/kg
Lymphopenia in rats % lymphopenia at given dose at 24 hrs (circulating lymphocytes [4]; Wistar male): 72% (0.3 mpk)

CC(C)Cc1ccc(-c2nc(-c3ccc(CN4CCC(C(=O)O)(C(=O)O)CC4)cc3)no2)cc1 [Comparative example 7, reference compound]
ED50 (circulating lymphocytes [1]): 1.8 mg/kg

CCCCCCCCCCCCC/C=C/[C@@H](O)[C@@H](N)COP(=O)(O)O [Example S1P, sphingosine-1-phosphate]
IC50 (EDG-1 [5]): ~5 nM

CCCCCCCCCCCCCCC[C@@H](O)[C@@H](N)COP(=O)(O)O [dihydroS1P]
IC50 (EDG-1 [5]): ~5 nM

CC(C)Cc1ccc(-c2nc(-c3ccc(CN[C@H]4C[C@@H](C(=O)O)C4)cc3)no2)cc1 [Comparative example 9, reference compound]
ED50 (EDG1) (EDG1): Inactive at 1 mg/kg

CC1(C(=O)O)CCN(Cc2ccc(-c3noc(-c4ccc(-c5ccccc5)c(Cl)c4)n3)cc2)CC1 [Example 8, 1-{4-[5-(2-Chlorobiphenyl-4-yl)-[1,2,4]-oxadiazol-3-yl]benzyl}-4-methylpiperidine-4-carboxylic acid]
EC50 (EDG-1 [3]; Table 1b, read-out: EDG1 EC50): < 1 nM
ED50 (circulating lymphocytes [1]): 0.1 mg/kg

CC(C)Cc1ccc(-c2nc(-c3ccc(CN4CC(C(=O)O)C4)cc3)no2)cc1 [Comparative compound 5, reference compound]
Cmax [2]: 495 ng/mL
AUC(0-t) [2]: 4530 ng·h/mL

C=CCC1(C(=O)O)CCN(Cc2ccc(-c3noc(-c4ccc(CC(C)C)c(Cl)c4)n3)cc2)CC1 [Example 12, 4-allyl-1-{4-[5-(3-chloro-4-isobutylphenyl)-[1,2,4]-oxadiazol-3-yl]benzyl}piperidine-4-carboxylic acid tert-butyl amine salt]
Ki (hERG channel): > 10000 nM
EC50 (EDG-1 [3]; [6]): < 1 nM
EC50 (EDG-1 [3]; Table 1b, read-out: EDG1 EC50): < 1 nM
EC50 (EDG3): > 1000 nM
EC50 (EDG5): > 1000 nM
Lymphopenia in rats % lymphopenia at given dose at 24 hrs (circulating lymphocytes [4]; Wistar female): 66% (0.3 mpk)

COCC1(C(=O)O)CCN(Cc2ccc(-c3noc(-c4ccc(C5CCCCC5)c(Cl)c4)n3)cc2)CC1 [Example 10, 1-{4-[5-(3-chloro-4-cyclohexylphenyl)-[1,2,4]-oxadiazol-3-yl]benzyl}-4-methoxymethylpiperidine-4-carboxylic acid tert-butyl amine salt]
Ki (hERG channel): > 10000 nM
EC50 (EDG-1 [3]; [6]): < 1 nM
EC50 (EDG-1 [3]; Table 1b, read-out: EDG1 EC50): < 1 nM
EC50 (EDG3): 610 nM
ED50 (circulating lymphocytes [1]): 0.2 mg/kg

CC(C)Cc1ccc(-c2nc(-c3ccc(CN4CCC(C)(C(=O)O)CC4)cc3)no2)cc1 [drawing 239]
lymphopenia (EDG1): 40% at 1 mg/kg

Reference: US9266867B2, “Piperidinyl monocarboxylic acids as S1P1 receptor agonists” (BIOPROJET, priority 2011, dated 2016)
